Data published in patent publication US20120178124A1, “STEROL SIDE CHAIN-CLEAVING ENZYME PROTEIN AND USE THEREOF” (MITSUBISHI CHEMICAL CORPORATION, priority 2009, published 2012).
Read-outs that look alike come from different tables or passages of the source.

Tests used:
CYP204A1 = conditions: for Conversion rate: strain BP172, same reaction as Example 6 (28° C., 5 hours); for accumulated amount of pregnenolone / added substrate remained: strain BP172, same reaction as Example 6
Protocol: Novosphingobium aromaticivorans (ATCC 700278) was inoculated into an L medium, and it was then cultured at 30° C. for 2 days. Thereafter, genomic DNA was extracted from the cell mass obtained in the same manner as that of Example 1. A fragment comprising a CYPSS204A1 gene and a ferredoxin gene located downstream thereof was amplified from the above-described genomic DNA by using a primer CYP-5F (SEQ ID NO: 9) and a primer CYP-6R (SEQ ID NO: 10) and also using La Taq polymerase (manufactured by Takara Bio INC.). The temperature conditions applied during this operation were 94° C./3 min, 30 cycles of (98° C./20 sec, 63° C./30 sec, and 68° C./2 min), and 72° C./5 min.
Escherichia coli BL21(DE3) was transformed with this plasmid, and the obtained cell strain was named as BP172.
(§1) The Escherichia coli expression strain BP215 was inoculated into 2 ml of an M9 mix medium (Na2HPO4: 0.68%, KH2PO4: 0.3%, NaCl: 0.05%, NH4C;: 0.01%, Casamino acid: 1%, D-Glucose: 0.4%, CaCl2: 0.1 mM, MgCl2: 1 mM, Thiamine: 0.002%, FeSO4: 0.1 mM, Carbenicillin: 0.005%), and it was then subjected to shaking culture at 30° C. for 17 hours, so as to obtain pre-culture solution. 0.25 ml of this pre-culture solution was inoculated into 25 ml of the main culture medium (Na2HPO4: 0.68%, KH2PO4: 0.3%, NaCl: 0.05%, NH4Cl: 0.01%, Casamino acid: 1%, CaCl2: 0.1 mM, MgCl2: 1 mM, Thiamine: 0.002%, FeSO4: 0.1 mM, Carbenicillin: 0.005%, Overnight Express™ solution: 7%, 5-Aminolevlic acid: 0.008%) using Overnight Express™ Autoinduction System (Novagen Cat. No. 71300-4), and it was then subjected to shaking culture at 25° C. for 24 hours. 5 ml of the obtained main culture solution was centrifuged (3500 rpm, 10 minutes) to obtain cell mass, and 1 ml of CV2 buffer (50 mM (pH) potassium phosphate buffer containing glycerol: 2%, carbenicillin: 0.005%, and isopropyl β-D-1-thiogalactopyranoside: 0.1 mM) was added to the obtained cell mass. Thereafter, 0.01 ml of the methanol solution of 1% 4-cholesten-3-one and 0.02 ml of an aqueous solution of 25% methyl-β-cyclodextrin were added to the mixed solution, and the obtained mixture was then shaken at 28° C. for 5 hours for the reaction. After completion of the reaction, 4 ml of methanol was added to the reaction solution, and they were then fully mixed. The obtained mixture was centrifuged, and the upper layer was then analyzed by HPLC.
As substrates, 4-cholesten-3-one, cholesterol, 7-dehydrocholesterol, ergosterol, 13-sitosterol, stigmasterol, campesterol, desmosterol, (20S)-20-hydroxycholest-4-en-3-one, (22R)-22-hydroxycholest-4-en-3-one, (20R,22R)-20,22-dihydroxycholest-4-en-3-one, and (20R,22S)-20,22-dihydroxycholest-4-en-3-one were used. Each substrate was subjected to the same reaction as that of Example 6, separately, and the generated product was then analyzed by HPLC.

CYP11A = target: T1, CYP11A (Homo sapiens, UniProt P05108); assay: Conversion reaction of substrates by CYP11A-expressing Escherichia coli; assay type: cell-based; conditions: for added substrate remained / accumulated amount of pregnenolone: same reaction as Example 6; for Conversion rate: same reaction as Example 6 (28° C., 5 hours)
T1 construct: A 1.45-kb CYP11A1 gene fragment amplified as a result of the above-described reaction; expressed in transfected cells; host or cells: Escherichia coli BL21(DE3), plasmid pCYP11A-ARX (strain BL21CYP11)
T1 sequence (P05108 40-521): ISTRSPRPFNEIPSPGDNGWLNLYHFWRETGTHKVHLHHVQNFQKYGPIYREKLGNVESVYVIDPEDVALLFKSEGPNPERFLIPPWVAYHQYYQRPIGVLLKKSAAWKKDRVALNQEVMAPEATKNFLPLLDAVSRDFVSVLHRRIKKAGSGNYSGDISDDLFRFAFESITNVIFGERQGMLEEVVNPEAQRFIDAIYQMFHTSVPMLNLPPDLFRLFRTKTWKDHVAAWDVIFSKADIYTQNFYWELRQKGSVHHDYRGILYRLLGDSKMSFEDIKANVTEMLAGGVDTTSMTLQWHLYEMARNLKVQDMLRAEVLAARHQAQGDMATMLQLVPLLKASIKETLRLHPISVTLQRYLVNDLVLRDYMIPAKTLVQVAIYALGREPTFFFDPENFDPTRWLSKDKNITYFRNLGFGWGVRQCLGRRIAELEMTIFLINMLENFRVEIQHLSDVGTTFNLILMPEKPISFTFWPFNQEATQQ
Protocol: as §1
A commercially available human testis cDNA (Origene Technologies, Inc.) was used as a template, and a CYP11A1 gene was amplified by PCR using a primer CYP11A-1F (SEQ ID NO: 19) and a primer CYP11A-2R (SEQ ID NO: 20), and also using KOD plus polymerase (TOYOBO Co., Ltd.). The temperature conditions applied during the PCR were 94° C./3 min, 30 cycles of (94° C./30 sec, 55° C./60 sec, and 72° C./90sec), and 72° C./5 min.
A 1.45-kb CYP11A1 gene fragment amplified as a result of the above-described reaction was purified using QIAquick PCR purification Kit (manufactured by QIAGEN), and it was then digested with Nde I and Spe I. Thereafter, the digest was ligated to Escherichia coli expression vector pT7NS-camAB, using T4 DNA ligase, and Escherichia coli DH5α was then transformed with the obtained expression vector, so as to construct a plasmid pCYP11A-camAB. Subsequently, using T4 DNA ligase, the previously prepared bovine-derived adrenodoxin reductase protein-adrenodoxin gene (adr-adx) fragment was inserted into and ligated to each of the Spe I and Bam HI sites of the above-described plasmid, and Escherichia coli DH5a was then transformed with the obtained plasmid, so as to construct plasmid pCYP11A-ARX. Thereafter, Escherichia coli BL21(DE3) was transformed with the thus constructed plasmid, and the obtained cell strain was named as BL21CYP11. The used adx-adr fragment was amplified by PCR with a plasmid pKARX (Sawada et. al. Eur. J. Biochem. 265, 950-956,1999) as a template, using primer bAdxR-1F (SEQ ID NO: 21) and primer bAdx-2R (SEQ ID NO: 22), and also using KOD plus polymerase (manufactured by TOYOBO Co., Ltd.). The temperature condition applied during the PCR were 94° C./3 min, 25 cycles of (94° C./30 sec, 60° C./30 sec, and 72° C./120sec), and 72° C./5 min.
Each substrate was subjected to the same reaction as that of Example 6, separately, and the reaction solution was then subjected to liquid separation using 1 ml of ethyl acetate. The reaction product and the substrate were extracted, and were then analyzed by HPLC.

CYPSS204A = assay: Conversion reaction of substrates by Escherichia coli expression strain BP215; assay type: cell-based, Sphingomonas subterranea NBRC 16086
Protocol: The temperature conditions applied during the PCR were 95° C./5 min, 30 cycles of (98° C./30 sec, 60° C./30 sec, and 68° C./2 min), and 68° C./10 min.
Analysis conditions: Using Chromolith speed rod RP18e (50×4.6 mm) column, 50%→100% CH3CN gradient (0 to 3 min) and 100% CH3CN (3 to 8 min) were used as a mobile phase, and detection was carried out at a flow rate of 2 ml/min using CAD™ (Charged Aerosol Detection) and MS.

[1] = strain BP215, 28° C., 5 hours, to progesterone, pregnenolone or 7-dehydropregnenolone

Row | Structure (SMILES) | Conversion rate (CYP204A1) [%] | added substrate remained (CYP11A) [%] | Conversion rate (CYP11A) [%] | added substrate remained (CYPSS204A; strain BP215, 28° C., 5 hours) [%] | Conversion rate (CYPSS204A; [1]) [%] | Conversion rate (CYPSS204A; strain BP215, 28° C., 5 hours, to progesterone, pregnenolone or 7-dehydropregnenolone, listed as 20-OH) [%] | accumulated amount of pregnenolone (CYP204A1) [mg/L] | added substrate remained (CYP204A1) [%] | accumulated amount of pregnenolone (CYP11A) [mg/L] | accumulated amount of pregnenolone (CYPSS204A; strain BP215, 28° C., 5 hours) [mg/L] | accumulated amount of side-chain cleavage product (CYPSS204A; strain BP215, 28° C., 5 hours) [mg/L] | Conversion rate (CYP11A; listed as Cam) [%] | Conversion rate (CYPSS204A) [%]
1 | CC(C)CCC[C@](C)(O)[C@H]1CC[C@H]2[C@@H]3CCC4=CC(=O)CC[C@]4(C)[C@H]3CC[C@@]21C [(20S)-20-hydroxycholest-4-en-3-one] | 63.9 | 100 | 0 | 4.8 | 41.0 | 41 | – | – | – | – | – | – | –
2 | CC(C)CC[C@H](O)[C@@H](C)[C@H]1CC[C@H]2[C@@H]3CC=C4C[C@@H](O)CC[C@]4(C)[C@H]3CC[C@]12C [(22S)-22-hydroxy-cholesterol] | 12.9 | 92.6 | 6.1 | 23.5 | 37.5 | – | 12.9 | 60.1 | 6.1 | 37.5 | – | – | –
3 | CC(C)CCC[C@@H](C)[C@H]1CC[C@H]2C3=CC=C4C[C@@H](O)CC[C@]4(C)[C@H]3CC[C@]12C [7-dehydrocholesterol] | 28.5 | 99.2 | 0.7 | 54 | 34.3 | – | – | – | – | – | 34.3 | – | –
4 | CC(C)CC[C@@H](O)[C@](C)(O)[C@H]1CC[C@H]2[C@@H]3CCC4=CC(=O)CC[C@]4(C)[C@H]3CC[C@]12C [(20R,22R)-20,22-dihydroxycholest-4-en-3-one] | 61.3 | 95 | 4.3 | 0.6 | 38.1 | – | – | – | – | – | – | – | –
5 | CC(C)CC[C@H](O)[C@](C)(O)[C@H]1CC[C@H]2[C@@H]3CCC4=CC(=O)CC[C@]4(C)[C@H]3CC[C@]12C [(20R,22S)-20,22-dihydroxycholest-4-en-3-one] | 41.7 | 100 | 0 | 0.6 | 69.8 | – | – | – | – | – | – | – | –
6 | CC(C)=CCC[C@@H](C)[C@H]1CC[C@@]2(C)C3=C(CC[C@]12C)[C@@]1(C)CC[C@H](O)C(C)(C)[C@@H]1CC3 [Lano, lanosterol] | 0 | – | 0 | – | 0 | – | – | – | – | – | – | – | –
7 | CC(C)CCC[C@@H](C)[C@H]1CC[C@H]2[C@@H]3CC=C4C[C@@H](O)CC[C@]4(C)[C@H]3CC[C@]12C [cholesterol] | 71.2 | 99 | 2.6 | 3.7 | 68.2 | – | – | – | – | – | 68.2 | – | –
8 | CC(C)[C@H](C)CC[C@@H](C)[C@H]1CC[C@H]2[C@@H]3CC=C4C[C@@H](O)CC[C@]4(C)[C@H]3CC[C@]12C [campesterol] | 31.3 | 99.1 | 1.0 | 25.5 | 27.9 | – | – | – | – | – | 27.9 | 1 | –
9 | CC(C)=CCC[C@@H](C)[C@H]1CC[C@H]2[C@@H]3CC=C4C[C@@H](O)CC[C@]4(C)[C@H]3CC[C@]12C [desmosterol] | 66.1 | 99.6 | 1.2 | 21.3 | 71.7 | – | – | – | – | – | 71.7 | – | –
10 | CC(C)[C@@H](C)/C=C/[C@@H](C)[C@H]1CC[C@H]2C3=CC=C4C[C@@H](O)CC[C@]4(C)[C@H]3CC[C@]12C [ergosterol] | – | 100 | 0 | – | – | – | – | – | – | – | 2.8 | – | 2.8
11 | CC(C)CCC[C@](C)(O)[C@H]1CC[C@H]2[C@@H]3CC=C4C[C@@H](O)CC[C@]4(C)[C@H]3CC[C@@]21C [(20S)-20-hydroxy-cholesterol] | 68.2 | 98.8 | 16.3 | 0 | 89.2 | – | 68.2 | 25.2 | 16.3 | 89.2 | – | – | –
12 | CC(C)CC[C@@H](O)[C@@H](C)[C@H]1CC[C@H]2[C@@H]3CCC4=CC(=O)CC[C@]4(C)[C@H]3CC[C@]12C [(22R)-22-hydroxycholest-4-en-3-one] | 80.9 | 99.7 | 0.4 | 2.7 | 42.3 | – | – | – | – | – | – | – | –
